Reference: patent US20240336573A1, “COMPOUND FOR THE TREATMENT AND PROPHYLAXIS OF INFECTIOUS DISEASES” (Eberhard Karls Universität Tübingen Medizinische Fakultät, priority 2021, published 2024)

What was measured:
[1] = tested on: E. coli BW25113, E. coli JW2496-3, E. coli ATCC 25922; assay: Minimal inhibitory concentration assay (bactericidal/bacteriostatic assessment); format: cell-based; details: dilution series 100-1.7 μM
Text: The intended effect of a SurA inhibitor should be the induction of a disturbance of the outer membrane composition resulting in an increased susceptibility to antibiotic treatment. Of note, Vancomycin is typically not used to treat infections with Gram-negative bacteria, because it is excluded by the OM and not efficient at concentrations that could be achieved in patients. However, at appropriate dosing in vitro it can be used to detect outer membrane defects. For determining a potential sensitizing effect of Vancomycin treatment, the inventors first tested whether the compounds at hand were bactericidal per se. Therefore, the inventors performed a minimal inhibitory concentration (MIC) assay. To this end, 5 ml overnight cultures of E. coli BW25113 (Keio-Collection reference strain), E. coli JW2496-3 (Keio-Collection single gene knockout for bamB, which suffers from decreased outer membrane integrity) and E. coli ATCC 25922 (a reference strain recommended for antibiotic susceptibility testing) were grown in Mueller Hinton Broth, Cation adjusted (MHB-II). The next day, the OD was adjusted to obtain 1*10^8 CFU/ml using fresh MHB-II. Next, this bacterial solution was diluted 1:100 into 20 ml fresh MHB-II. 50 μl of this bacteria solution were then transferred into each well of a 96-well plate prefilled with 50 μl MHB-II supplemented with the desired compounds. The test plates for the bactericidal assessment contained dilution series of the compounds from 100-1.7 μM. Plates were sealed with a gas permeable membrane and incubated o/n at 37° C. in a humid chamber without shaking. After o/n incubation, bacterial growth was quantified by measuring the optical density at 600 nm wavelength in a multiplate reader. Compounds showing no growth inhibition at 100 μM were considered non-bactericidal. Of note, the bactericidal effect of Vancomycin was assessed similarly for each test strain using Vancomycin concentrations ranging from […]. This was done to identify a Vancomycin concentration at which the strains just managed to survive.

SurA = SurA (Escherichia coli, UniProt P0ABZ6); assay: Luciferase-based SurA activity assay (primary assay, in-house); format: biochemical, E. coli; details: n/d: no signal detected; for Primary Assay ICmax: QHL-10 derivatives, dose response up to 125 μM; for Primary Assay Amplitude: amplitude of signal
Chain of SurA (P0ABZ6 21-428): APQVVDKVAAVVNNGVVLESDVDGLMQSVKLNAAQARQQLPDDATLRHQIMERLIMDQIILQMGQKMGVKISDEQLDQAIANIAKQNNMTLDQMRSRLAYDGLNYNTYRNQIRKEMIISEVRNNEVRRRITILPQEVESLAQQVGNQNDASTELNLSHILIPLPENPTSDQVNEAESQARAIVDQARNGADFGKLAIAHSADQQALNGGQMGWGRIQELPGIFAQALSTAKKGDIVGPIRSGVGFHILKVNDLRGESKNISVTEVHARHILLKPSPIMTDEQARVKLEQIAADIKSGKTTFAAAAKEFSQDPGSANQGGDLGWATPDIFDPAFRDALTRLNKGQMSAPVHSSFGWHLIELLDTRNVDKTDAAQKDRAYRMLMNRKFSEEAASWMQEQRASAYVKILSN
Text: The biological function of SurA is to bind and to keep outer membrane proteins that have reached the periplasm in an unfolded but folding-competent state. The inventors' assay is based on this interaction and uses firefly Luciferase (fLuc) as a non-native substrate. […] This is exploited in the assay (FIG. 3). The loss of tertiary structure of fLuc leads to the exposure of binding sites for SurA. It is known that SurA binds selectively to a special group of substrates. These substrates have in common the specific patterns of hydrophobic amino acids that are highly enriched in the beta strands of integral outer membrane proteins. These motifs are present in OMPs of all Gram-negative bacteria and in fLuc as well. Upon mild heat treatment of fLuc and its subsequent partial unfolding, fLuc is accepted as a substrate by SurA. Of note, these intermediates served as reporter substrates to determine the activity of a […] folding chaperone. […] This interaction remains stable upon temperature reduction. Next, the temperature of the assay is reduced to room temperature and luciferase activity is subsequently measured by addition of Luciferin and ATP. In conditions without SurA, fLuc will refold into its active conformation resulting in a luminescence signal.
In short, the Luciferase based SurA activity assay was performed in SurA Activity Assay Buffer (40 mM HEPES pH 7.4, 20 mM MgSO4, 0.5 g/I BSA). SurA aliquots were thawn at RT, activated by mild heat treatment and cooled down to RT for 10 min. […] Solution A containing 10 mM ATP as well as 0.3 mM Luciferin (Promega Beetle Luciferin, Potassium Salt) in water was prepared. Luciferase working solution was prepared by diluting 1 ml Luciferase working stock (100 nM) with 9 ml assay buffer. 33 μl of the protein solution were added to every 2nd row of a well of a 384-well PS, white, flat bottom plate. […] Subsequently, 2 μl of compound in DMSO were added in quadruplicates (4 wells each of protein solution and buffer controls). These compound solutions could contain either various compounds or different dilutions of the same compound allowing screening inhibitor activity in a dose dependent manner. After compound addition, plates were incubated 15 min at RT. After this incubation, 5 μl of Luciferase working solution were added to each well. Next, the plates were incubated 25 min at 38° C. to partially unfold the Luciferase. Subsequently, the assay plate was cooled for 5 min at 4° C. followed by 10 min incubation at RT prior to luminescence measurement. Luminescence was measured in a TECAN infinite M200 pro plate reader for each well individually after injection of 10 μl Solution A.

E. coli JW2496-3 = assay: Sensitizer MIC assay (vancomycin); format: cell-based; details: 100 μM compound, more susceptible strain
Protocol: (§1) To test for the sensitizer properties of the compounds, the inventors then performed a sensitizer MIC assay. To this end, E. coli BW25113, E. coli JW2496-3, and E. coli ATCC 25922 inocula were prepared as described above. Each well of a 96-well plate was prefilled with a fixed compound concentration of 100 μM and a dilution series of Vancomycin ranging from […]. A sensitizing effect was defined as reduction of the MIC value of Vancomycin of the respective test strain.

E. coli ATCC 25922 = assay: Sensitizer MIC assay (vancomycin); format: cell-based; details: vancomycin; 100 μM compound; type strain
Protocol: as §1

E. coli BW25113 = assay: Sensitizer MIC assay (vancomycin); format: cell-based; details: 100 μM compound, wildtype strain
Protocol: as §1

## CCOC(=O)COc1ccc(Cc2nc(C(N)=O)c(NC(=O)c3ccc(-c4ccccc4)cc3)[nH]2)cc1 [Compound 1a, Ethyl 2-(4-((5-([1,1′-biphenyl]-4-carboxamido)-4-carbamoyl-1H-imidazol-2-yl)methyl)-phenoxy)acetate]
[1]
  Bacteriostatic MIC Assay Result: non-bacteriostatic
SurA
  Primary Assay ICmax: 16 µM
  Primary Assay Amplitude: high
E. coli JW2496-3
  Sensitizer MIC Assay (log2-fold reduction of MIC in presence of compound) JW2496-3: 0 log2-fold
E. coli ATCC 25922
  Sensitizer MIC Assay (log2-fold reduction of MIC in presence of compound) ATCC25922: 0 log2-fold
E. coli BW25113
  Sensitizer MIC Assay (log2-fold reduction of MIC in presence of compound) BW25113: 0 log2-fold

## CCOC(=O)COc1ccc(Cc2nc(C(N)=O)c(NC(=O)c3cccc(-c4ccccc4)c3)[nH]2)cc1 [Compound 1b, Ethyl 2-(4-((5-([1,1′-biphenyl]-3-carboxamido)-4-carbamoyl-1H-imidazol-2-yl)methyl)phenoxy)acetate]
[1]
  Bacteriostatic MIC Assay Result: non-bacteriostatic

## NC(=O)c1nc(Cc2ccc(OCc3ccccc3)cc2)[nH]c1NC(=O)c1ccc(-c2ccccc2)cc1 [Compound 1d, 5-([1,1′-biphenyl]-4-carboxamido)-2-(4-(benzyloxy)benzyl)-1H-imidazole-4-carboxamide]
[1]
  Bacteriostatic MIC Assay Result: non-bacteriostatic
SurA
  Primary Assay ICmax: 32 µM
  Primary Assay Amplitude: low
E. coli JW2496-3
  Sensitizer MIC Assay (log2-fold reduction of MIC in presence of compound) JW2496-3: 0 log2-fold
E. coli ATCC 25922
  Sensitizer MIC Assay (log2-fold reduction of MIC in presence of compound) ATCC25922: 0 log2-fold
E. coli BW25113
  Sensitizer MIC Assay (log2-fold reduction of MIC in presence of compound) BW25113: 0 log2-fold

## NC(=O)c1nc(Cc2ccccc2)[nH]c1NC(=O)c1ccc(-c2ccccc2)cc1 [Compound 1e, 5-([1,1′-biphenyl]-4-carboxamido)-2-benzyl-1H-imidazole-4-carboxamide]
[1]
  Bacteriostatic MIC Assay Result: non-bacteriostatic
SurA
  Primary Assay ICmax: 16 µM
  Primary Assay Amplitude: high
E. coli JW2496-3
  Sensitizer MIC Assay (log2-fold reduction of MIC in presence of compound) JW2496-3: 0 log2-fold
E. coli ATCC 25922
  Sensitizer MIC Assay (log2-fold reduction of MIC in presence of compound) ATCC25922: 0 log2-fold
E. coli BW25113
  Sensitizer MIC Assay (log2-fold reduction of MIC in presence of compound) BW25113: 0 log2-fold

## COc1ccc(Cc2nc(C(N)=O)c(NC(=O)c3ccc(-c4ccccc4)cc3)[nH]2)cc1 [Compound 1f, 5-([1,1′-biphenyl]-4-carboxamido)-2-(4-methoxybenzyl)-1H-imidazole-4-carboxamide]
[1]
  Bacteriostatic MIC Assay Result: slightly
SurA
  Primary Assay ICmax: 16 µM
  Primary Assay Amplitude: high

## NC(=O)c1nc(Cc2ccc(OCC(=O)O)cc2)[nH]c1NC(=O)c1cccc(-c2ccccc2)c1 [Compound 2b, 2-(4-((5-([1,1′-biphenyl]-3-carboxamido)-4-carbamoyl-1H-imidazol-2-yl)methyl)phenoxy)acetic acid]
[1]
  Bacteriostatic MIC Assay Result: non-bacteriostatic
SurA
  Primary Assay ICmax: 64 µM
  Primary Assay Amplitude: low
E. coli JW2496-3
  Sensitizer MIC Assay (log2-fold reduction of MIC in presence of compound) JW2496-3: 0 log2-fold
E. coli ATCC 25922
  Sensitizer MIC Assay (log2-fold reduction of MIC in presence of compound) ATCC25922: 0 log2-fold
E. coli BW25113
  Sensitizer MIC Assay (log2-fold reduction of MIC in presence of compound) BW25113: 0 log2-fold

## NC(=O)c1nc(Cc2ccc(OCC(=O)O)cc2)[nH]c1NC(=O)c1ccccc1-c1ccccc1 [Compound 2c, 2-(4-((5-([1,1′-biphenyl]-2-carboxamido)-4-carbamoyl-1H-imidazol-2-yl)methyl)phenoxy)acetic acid]
[1]
  Bacteriostatic MIC Assay Result: non-bacteriostatic
E. coli JW2496-3
  Sensitizer MIC Assay (log2-fold reduction of MIC in presence of compound) JW2496-3: 0 log2-fold
E. coli ATCC 25922
  Sensitizer MIC Assay (log2-fold reduction of MIC in presence of compound) ATCC25922: 0 log2-fold
E. coli BW25113
  Sensitizer MIC Assay (log2-fold reduction of MIC in presence of compound) BW25113: 0 log2-fold

## NC(=O)c1nc(Cc2ccc(O)cc2)[nH]c1NC(=O)c1ccc(-c2ccccc2)cc1 [Compound 2d, 5-([1,1′-biphenyl]-4-carboxamido)-2-(4-hydroxybenzyl)-1H-imidazole-4-carboxamide]
[1]
  Bacteriostatic MIC Assay Result: non-bacteriostatic
SurA
  Primary Assay ICmax: 16 µM
  Primary Assay Amplitude: high

## NC(=O)c1nc(-c2cccc(N)c2)[nH]c1NC(=O)c1ccc(-c2ccccc2)cc1 [Compound 3b, 5-([1,1′-biphenyl]-4-carboxamido)-2-(3-aminophenyl)-1H-imidazole-4-carboxamide]
[1]
  Bacteriostatic MIC Assay Result: non-bacteriostatic
SurA
  Primary Assay ICmax: 8 µM
  Primary Assay Amplitude: high
E. coli JW2496-3
  Sensitizer MIC Assay (log2-fold reduction of MIC in presence of compound) JW2496-3: 1-3 log2-fold
E. coli ATCC 25922
  Sensitizer MIC Assay (log2-fold reduction of MIC in presence of compound) ATCC25922: 1 log2-fold
E. coli BW25113
  Sensitizer MIC Assay (log2-fold reduction of MIC in presence of compound) BW25113: 1 log2-fold

## NC(=O)c1nc(-c2ccccc2O)[nH]c1NC(=O)c1ccc(-c2ccccc2)cc1 [Compound 3c, 5-([1,1′-biphenyl]-4-carboxamido)-2-(2-hydroxyphenyl)-1H-imidazole-4-carboxamide]
[1]
  Bacteriostatic MIC Assay Result: non-bacteriostatic
SurA
  Primary Assay ICmax: 8 µM
  Primary Assay Amplitude: high
E. coli JW2496-3
  Sensitizer MIC Assay (log2-fold reduction of MIC in presence of compound) JW2496-3: 1-2 log2-fold
E. coli ATCC 25922
  Sensitizer MIC Assay (log2-fold reduction of MIC in presence of compound) ATCC25922: 1-2 log2-fold
E. coli BW25113
  Sensitizer MIC Assay (log2-fold reduction of MIC in presence of compound) BW25113: 0 log2-fold

## NC(=O)c1nc(-c2cccc(N)c2)[nH]c1NC(=O)Cc1cccc2ccccc12 [Compound 3i, 2-(3-aminophenyl)-5-(2-(naphthalen-1-yl)acetamido)-1H-imidazole-4-carboxamide]
[1]
  Bacteriostatic MIC Assay Result: non-bacteriostatic

## NC(=O)c1nc(-c2ccccc2O)[nH]c1NC(=O)Cc1cccc2ccccc12 [Compound 3j, 2-(2-hydroxyphenyl)-5-(2-(naphthalen-1-yl)acetamido)-1H-imidazole-4-carboxamide]
[1]
  Bacteriostatic MIC Assay Result: non-bacteriostatic
E. coli JW2496-3
  Sensitizer MIC Assay (log2-fold reduction of MIC in presence of compound) JW2496-3: 1-4 log2-fold
E. coli ATCC 25922
  Sensitizer MIC Assay (log2-fold reduction of MIC in presence of compound) ATCC25922: 1 log2-fold
E. coli BW25113
  Sensitizer MIC Assay (log2-fold reduction of MIC in presence of compound) BW25113: 0 log2-fold

## NC(=O)c1nc(-c2ccc(F)c(N)c2)[nH]c1NC(=O)Cc1cccc2ccccc12 [Compound 3k, 2-(3-amino-4-fluorophenyl)-5-(2-(naphthalen-1-yl)acetamido)-1H-imidazole-4-carboxamide]
[1]
  Bacteriostatic MIC Assay Result: non-bacteriostatic
E. coli JW2496-3
  Sensitizer MIC Assay (log2-fold reduction of MIC in presence of compound) JW2496-3: 0 log2-fold
E. coli ATCC 25922
  Sensitizer MIC Assay (log2-fold reduction of MIC in presence of compound) ATCC25922: 0 log2-fold
E. coli BW25113
  Sensitizer MIC Assay (log2-fold reduction of MIC in presence of compound) BW25113: 0 log2-fold

## NC(=O)c1nc(-c2cc(F)c(F)c(F)c2)[nH]c1NC(=O)c1ccccc1OCc1ccccc1 [Compound 3p, 5-(2-(benzyloxy)benzamido)-2-(3,4,5-trifluorophenyl)-1H-imidazole-4-carboxamide]
[1]
  Bacteriostatic MIC Assay Result: slightly
